Values of other authors in PMC10928227, “Assessing biologic/toxicologic effects of extractables from plastic contact materials for advanced therapy manufacturing using cell painting assay and cytotoxicity screening” (Scientific Reports, 2024).
Like-named read-outs stand apart in the source and are kept apart here.

How the values were obtained:
[1] = cited from earlier work; for Gene mutation, Mammalian Cell Gene Mutation Assay: T-lymphoma Cell Lines
[2] = cited from earlier work; for Chromosome aberration, Micronucleus Assay / DNA damage and repair, COMET or Alkaline Elution / DNA damage and repair, Single Cell Gel Electrophoresis (comet) Assay: in Vivo; for DNA damage and repair, Single Cell Gel Electrophoresis (comet) Assay: ref Yu F. Sasaki et. al., 2000, Critical Reviews in Toxicology,30(6),Pp.629-799
[3] = Salmonella typhimurium, No Strain Information, in Vitro, Database: Genotoxicity OASIS, ref Mutation Research 584 (2005) 1-256, Kirkland et al.
[4] = Salmonella typhimurium, Strain TA 97, in Vitro, Database: Bacterial mutagenicity ISSSTY, ref CCRIS database,Toxnet databases (Romualdo Benigni)
[5] = Salmonella typhimurium, Strain TA 98, in Vitro, Database: Bacterial mutagenicity ISSSTY, ref CCRIS database,Toxnet databases (Romualdo Benigni)
[6] = Salmonella typhimurium, Strain TA 98, in Vitro, Database: Genotoxicity OASIS, ref P&G
[7] = Salmonella typhimurium, Strain TA 100, in Vitro, Database: Bacterial mutagenicity ISSSTY, ref CCRIS database,Toxnet databases (Romualdo Benigni)
[8] = Salmonella typhimurium, Strain TA 100, in Vitro, Database: Genotoxicity OASIS, ref P&G
[9] = Salmonella typhimurium, Strain TA 102, in Vitro, Database: Bacterial mutagenicity ISSSTY, ref CCRIS database,Toxnet databases (Romualdo Benigni)
[10] = Salmonella typhimurium, Strain TA 1535, in Vitro, Database: Bacterial mutagenicity ISSSTY, ref CCRIS database,Toxnet databases (Romualdo Benigni)
[11] = Salmonella typhimurium, Strain TA 1535, in Vitro, Database: Genotoxicity OASIS, ref P&G
[12] = Salmonella typhimurium, Strain TA 1537, in Vitro, Database: Bacterial mutagenicity ISSSTY, ref CCRIS database,Toxnet databases (Romualdo Benigni)
[13] = Salmonella typhimurium, Strain TA 1537, in Vitro, Database: Genotoxicity OASIS, ref P&G
[14] = in Vitro, Database Genotoxicity & Carcinogenicity ECVAM, ref EURL ECVAM genotoxicity and carcinogencity database, Madia F et al, 2020
[15] = in Vitro, Database Genotoxicity OASIS, ref Mutation Research 584 (2005) 1-256, Kirkland et al.
[16] = in Vitro, No Strain Information, Database Genotoxicity OASIS, ref Mutation Research 584 (2005) 1-256, Kirkland et al.
[17] = in Vitro, Salmonella typhimurium, Strain TA 97, Database Genotoxicity OASIS, ref P&G
[18] = in Vitro, Salmonella typhimurium, Strain TA 98, Database Genotoxicity OASIS, ref P&G
[19] = in Vitro, Salmonella typhimurium, Strain TA 100, Database Genotoxicity OASIS, ref P&G
[20] = in Vitro, Salmonella typhimurium, Strain TA 102, OECD Guideline 471, Database Genotoxicity OASIS, ref CCRIS database,Toxnet databases
[21] = in Vitro, Salmonella typhimurium, Strain TA 1535, Database Genotoxicity OASIS, ref P&G
[22] = in Vitro, Salmonella typhimurium, Strain TA 1537, Database Genotoxicity OASIS, ref P&G
[23] = in Vitro, Salmonella typhimurium, Strain TA 1538, Database Genotoxicity OASIS, ref P&G
[24] = Database Genotoxicity & Carcinogenicity ECVAM, ref EURL ECVAM genotoxicity and carcinogencity database, Madia F et al, 2020

Row | SMILES | Gene mutation, Bacterial Reverse Mutation Assay (e.g. Ames Test) [1, 3] | Gene mutation, Bacterial Reverse Mutation Assay (e.g. Ames Test) [1, 4] | Gene mutation, Bacterial Reverse Mutation Assay (e.g. Ames Test) [1, 5] | Gene mutation, Bacterial Reverse Mutation Assay (e.g. Ames Test) [1, 6] | Gene mutation, Bacterial Reverse Mutation Assay (e.g. Ames Test) [1, 7] | Gene mutation, Bacterial Reverse Mutation Assay (e.g. Ames Test) [1, 8] | Gene mutation, Bacterial Reverse Mutation Assay (e.g. Ames Test) [1, 9] | Gene mutation, Bacterial Reverse Mutation Assay (e.g. Ames Test) [1, 10] | Gene mutation, Bacterial Reverse Mutation Assay (e.g. Ames Test) [1, 11] | Gene mutation, Bacterial Reverse Mutation Assay (e.g. Ames Test) [1, 12] | Gene mutation, Bacterial Reverse Mutation Assay (e.g. Ames Test) [1, 13] | Chromosome aberration, Micronucleus Assay [1, 14] | Gene mutation, Bacterial Reverse Mutation Assay (e.g. Ames Test) [1, 14] | Gene mutation, Mammalian Cell Gene Mutation (MLA HPRT) [1, 14] | Chromosome aberration, in Vitro Mammalian Chromosome Aberration Test [1, 16] | Gene mutation, Bacterial Reverse Mutation Assay (e.g. Ames Test) [1, 17] | Gene mutation, Bacterial Reverse Mutation Assay (e.g. Ames Test) [1, 18] | Gene mutation, Bacterial Reverse Mutation Assay (e.g. Ames Test) [1, 19] | Gene mutation, Bacterial Reverse Mutation Assay (e.g. Ames Test) [1, 20] | Gene mutation, Bacterial Reverse Mutation Assay (e.g. Ames Test) [1, 21] | also measured
1 | Oc1ccccc1 [108-95-2] | Negative | Negative | Negative | Negative | Negative | Negative | Negative | Negative | Negative | Negative | Negative | Positive | Negative | Positive | Positive | Negative | Negative | Negative | Negative | Negative | Gene mutation, Bacterial Reverse Mutation Assay (e.g. Ames Test) ([1]; Salmonella typhimurium, Strain TA 104, in Vitro, Database: Bacterial mutagenicity ISSSTY, ref CCRIS database,Toxnet databases (Romualdo Benigni)): Negative; Gene mutation, Bacterial Reverse Mutation Assay (e.g. Ames Test) ([1]; Salmonella typhimurium, Strain TA 7001, in Vitro, Database: Bacterial mutagenicity ISSSTY, ref CCRIS database,Toxnet databases (Romualdo Benigni)): Negative; Gene mutation, Bacterial Reverse Mutation Assay (e.g. Ames Test) ([1]; Salmonella typhimurium, Strain TA 7002, in Vitro, Database: Bacterial mutagenicity ISSSTY, ref CCRIS database,Toxnet databases (Romualdo Benigni)): Negative; Gene mutation, Bacterial Reverse Mutation Assay (e.g. Ames Test) ([1]; Salmonella typhimurium, Strain TA 7003, in Vitro, Database: Bacterial mutagenicity ISSSTY, ref CCRIS database,Toxnet databases (Romualdo Benigni)): Negative; Gene mutation, Bacterial Reverse Mutation Assay (e.g. Ames Test) ([1]; Salmonella typhimurium, Strain TA 7004, in Vitro, Database: Bacterial mutagenicity ISSSTY, ref CCRIS database,Toxnet databases (Romualdo Benigni)): Negative; Gene mutation, Bacterial Reverse Mutation Assay (e.g. Ames Test) ([1]; Salmonella typhimurium, Strain TA 7005, in Vitro, Database: Bacterial mutagenicity ISSSTY, ref CCRIS database,Toxnet databases (Romualdo Benigni)): Negative; Gene mutation, Bacterial Reverse Mutation Assay (e.g. Ames Test) ([1]; Salmonella typhimurium, Strain TA 7006, in Vitro, Database: Bacterial mutagenicity ISSSTY, ref CCRIS database,Toxnet databases (Romualdo Benigni)): Negative; Genetic Toxicity, Gene mutation (Bacterial Reverse Mutation Assay, e.g. Ames Test) ([1]; Salmonella typhimurium, strain TA 100, in Vitro, scale Gene mutation I, ref CCRIS database, Toxnet databases, Database: Bacterial mutagenicity ISSSTY (Romualdo Benigni, 2011)): Negative; Chromatids exchanges/ recombination, Sister Chromatid Exchange (SCE) [1, 14]: Positive; DNA damage and repair, DNA Adducts [1, 14]: Positive; Gene mutation, in Vitro Mammalian Cell Micronucleus Test [1, 15]: Positive; Gene mutation, Bacterial Reverse Mutation Assay (e.g. Ames Test) [1, 22]: Negative; Gene mutation, Bacterial Reverse Mutation Assay (e.g. Ames Test) [1, 23]: Negative; Gene mutation, Mammalian Cell Gene Mutation Assay [1, 15]: Positive; Genetic Toxicity, unscheduled DNA synthesis (UDS in Vitro) ([1]; in Vitro, scale Mutagenicity I (ECVAM), ref EURL ECVAM genotoxicity and carcinogencity database, Madia F et al, 2020): Positive; Chromosome aberration, in Vivo Mammalian Chromosome Aberration Test [2, 24]: Negative; Chromosome aberration, Micronucleus Assay [2, 24]: Positive; DNA damage and repair, COMET or Alkaline Elution [2, 24]: Positive; Chromosome aberration, Micronucleus Assay ([2]; Database Genotoxicity OASIS, ref Ciranni, R., Barale, & Marrazzini, A. (1988), Mutat Res, 208, 61-67): Negative; DNA damage and repair, Single Cell Gel Electrophoresis (comet) Assay ([2]; Database Genotoxicity OASIS): Positive
2 | OCc1ccccc1 [100-51-6] | Negative | Negative | Negative | Negative | Negative | Negative | Negative | Negative | Negative | Negative | Negative | Negative | Negative | Inadequate | Positive | Negative | Negative | Negative | Negative | Negative | Chromosome aberration, in Vitro Mammalian Chromosome Aberration Test ([1]; in Vitro, Chinese hamster, CHO Cells, Database Genotoxicity OASIS, ref ECHA, Registration dossier): Positive; Chromosome aberration, in Vitro Mammalian Chromosome Aberration Test ([1]; in Vitro, Chinese hamster, Chinese Hamster Lung (CHL), Duration 24÷48 h, Database Genotoxicity OASIS, ref Sofuni, T., Ed. (1998). Data Book of Chromosomal Aberration Test In Vitro, Revised Edition): Negative; Chromosome aberration, in Vitro Mammalian Chromosome Aberration Test [1, 14]: Negative; Gene mutation, Bacterial Reverse Mutation Assay (e.g. Ames Test) ([1]; in Vitro, Salmonella typhimurium, No Strain Information, Database Genotoxicity OASIS, ref Journal of Medicinal Chemistry 48 (1), pp. 312-32, 25, Kazius J, McGuire R., Bursi R): Negative; Gene mutation, Bacterial Reverse Mutation Assay (e.g. Ames Test) [1, 22]: Negative; Gene mutation, Bacterial Reverse Mutation Assay (e.g. Ames Test) [1, 23]: Negative; Gene mutation, Mammalian Cell Gene Mutation Assay [1, 15]: Positive; Chromosome aberration, Micronucleus Assay [2, 24]: Negative; DNA damage and repair, COMET or Alkaline Elution [2, 24]: Positive; Chromosome aberration, Micronucleus Assay ([2]; Database Genotoxicity OASIS, ref Hayashi M., et al., Food Chem. Toxicol., 26(6), 487-500, 1988): Negative; DNA damage and repair, Single Cell Gel Electrophoresis (comet) Assay ([2]; Database Genotoxicity OASIS): Negative
